The experiment deals with T1, NPR-B (Homo sapiens, UniProt P20594).
T1 construct: a functional assay using endogenously NPR-B expressing GTM-3 cells; endogenous in cells; host or cells: GTM-3 (human glaucoma trabecular meshwork cells)
T1 sequence (P20594 23-1047): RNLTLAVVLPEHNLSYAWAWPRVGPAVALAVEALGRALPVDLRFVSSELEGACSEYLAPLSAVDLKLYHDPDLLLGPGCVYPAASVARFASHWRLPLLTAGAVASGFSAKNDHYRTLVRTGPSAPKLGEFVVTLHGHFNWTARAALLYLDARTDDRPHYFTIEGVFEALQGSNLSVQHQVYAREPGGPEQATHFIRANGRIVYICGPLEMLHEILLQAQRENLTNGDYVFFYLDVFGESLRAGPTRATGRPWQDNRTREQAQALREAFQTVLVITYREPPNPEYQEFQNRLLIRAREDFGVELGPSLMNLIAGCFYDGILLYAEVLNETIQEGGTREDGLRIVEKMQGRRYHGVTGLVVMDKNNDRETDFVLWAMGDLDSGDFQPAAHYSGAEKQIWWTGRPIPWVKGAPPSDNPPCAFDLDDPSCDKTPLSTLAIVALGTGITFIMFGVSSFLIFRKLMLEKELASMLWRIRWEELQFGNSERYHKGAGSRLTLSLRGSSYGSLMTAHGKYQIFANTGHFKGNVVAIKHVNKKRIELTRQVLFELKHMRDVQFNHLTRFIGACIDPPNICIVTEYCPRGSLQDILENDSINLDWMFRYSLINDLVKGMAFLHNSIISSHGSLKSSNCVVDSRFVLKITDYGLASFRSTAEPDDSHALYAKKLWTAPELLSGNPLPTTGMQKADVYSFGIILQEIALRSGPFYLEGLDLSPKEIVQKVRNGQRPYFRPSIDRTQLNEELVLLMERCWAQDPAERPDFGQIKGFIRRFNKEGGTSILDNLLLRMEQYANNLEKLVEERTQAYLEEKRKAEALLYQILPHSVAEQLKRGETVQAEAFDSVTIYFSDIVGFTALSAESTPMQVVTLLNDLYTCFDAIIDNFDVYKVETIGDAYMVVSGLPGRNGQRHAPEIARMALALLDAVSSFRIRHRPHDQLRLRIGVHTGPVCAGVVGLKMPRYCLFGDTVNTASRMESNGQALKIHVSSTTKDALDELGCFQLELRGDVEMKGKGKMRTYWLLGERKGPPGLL
Nature of the experiment: NPR-B induced production of cyclic GMP in human glaucoma trabecular meshwork cells (GTM-3). The experiment is classed as cell-based. To be noted: group by EC50 and Emax (CNP = 100%); Table 4; read-out: Activity (group), NPR-B activation assayed with GTM-3 cells.

The results in this text go back to patent US9822147B2, “Methods of treating ophthalmic diseases using NPR-B agonists” (priority 2009, dated 2017).

Numbered stars: 1 amine (or outer) side, 2 acyl side, 3 side chain; on linkers, the order of the positions; unused ones are H or OH. Square brackets hold non-standard residues; d marks the D form. Peptide text beside a SMILES is read from it. * marks the point of attachment. Pro(4R-NH2) = N[C@H]1CN[C@H](C(=O)O)C1; X9 = CN(C)CC[C@@H](N[*:1])C(=O)[*:2]; dLys(Me2) = CN(C)CCCC[C@@H](N)C(=O)O; dOrn(Me2) = CN(C)CCC[C@@H](N)C(=O)O; X11 = O=C(C(CCN1CCCC1)N[*:1])[*:2]; X19 = O=C(C(CC1CCNCC1)N[*:1])[*:2]; X2 = O=C([C@H]1CCCN([*:1])C1)[*:2]; X1 = CCCCCCCCN1CCC[C@H](C(=O)*)C1; Hyp = O=C(O)[C@@H]1C[C@@H](O)CN1; Aoc(2) = CCCCCC[C@H](N)C(=O)O; NHcycloheptyl = C1CCCC(N*)CC1; NMeL = CN[C@@H](CC(C)C)C(=O)O; Octanoyl = CCCCCCCC(=O)*; AEEA = NCCOCCOCC(=O)O

With `CCCCCCCC(=O)N[C@@]1(C)CCN([C@@H](Cc2ccccc2)C(=O)N[C@H](CC(C)C)C(=O)N[C@@H](CC(C)C)C(=O)N2C[C@H](O)C[C@H]2C(=O)N(C)[C@@H](CC(C)C)C(=O)N[C@@H](CC(=O)O)C(=O)N[C@@H](CCCNC(=N)N)C(=O)N[C@H](C(N)=O)[C@@H](C)CC)C1=O` [JAL-1774, (AR-314-102)-leu-Leu-Hyp-Nml-Asp-Arg-Ile-NH2], the EC50 was under 1000 nM.
As for `CCCCCCCC(=O)N1CCC[C@H](C(=O)N[C@@H](Cc2ccccc2)C(=O)N[C@H](CCCN(C)C)C(=O)N[C@@H](CC(C)C)C(=O)N2C[C@H](O)C[C@H]2C(=O)N(C)[C@@H](CC(C)C)C(=O)N[C@@H](CC(=O)O)C(=O)N[C@@H](CCCNC(=N)N)C(=O)NC2CCCCCC2)C1` [JAL-1776, Occ-Sni-Phe-orn(Me2)-Leu-Hyp-Nml-Asp-Arg-Che] (Octanoyl-[X2]F[dOrn(Me2)]L[Hyp][NMeL]DR-NHcycloheptyl), the figure is under 1000 nM; as for `CCCCCCCC(=O)N1CCC[C@H](C(=O)N[C@@H](Cc2ccccc2)C(=O)N[C@H](CCCCN(C)C)C(=O)N[C@@H](CC(C)C)C(=O)N2C[C@H](O)C[C@H]2C(=O)N(C)[C@@H](CC(C)C)C(=O)N[C@@H](CC(=O)O)C(=O)N[C@@H](CCCNC(=N)N)C(=O)NC2CCCCCC2)C1` [JAL-1777, Occ-Sni-Phe-lys(Me2)-Leu-Hyp-Nml-Asp-Arg-Che] (Octanoyl-[X2]F[dLys(Me2)]L[Hyp][NMeL]DR-NHcycloheptyl), under 1000 nM; as for `CCCCCCCC(=O)N1CCC[C@H](C(=O)N[C@@H](Cc2ccccc2)C(=O)N[C@H](CCCCN(C)C)C(=O)N[C@@H](CC(C)C)C(=O)N2C[C@H](O)C[C@H]2C(=O)N(C)[C@@H](CC(C)C)C(=O)N[C@H](C(=O)N[C@@H](CCCNC(=N)N)C(=O)NC2CCCCCC2)C(C)C)C1` [JAL-1779, Occ-Sni-Phe-lys(Me2)-Leu-Hyp-Nml-Val-Arg-Che] (Octanoyl-[X2]F[dLys(Me2)]L[Hyp][NMeL]VR-NHcycloheptyl), under 1000 nM.
Under `CCCCCCCC(=O)N1CCC[C@H](C(=O)N[C@@H](Cc2ccccc2)C(=O)N[C@H](CCCN(C)C)C(=O)N[C@@H](CC(C)C)C(=O)N2C[C@H](O)C[C@H]2C(=O)N(C)[C@@H](CC(C)C)C(=O)N[C@H](C(=O)N[C@@H](CCCNC(=N)N)C(=O)N[C@H](C(N)=O)[C@@H](C)CC)C(C)C)C1` [JAL-1782, Occ-Sni-Phe-orn(Me2)-Leu-Hyp-Nml-Val-Arg-Ile-NH2] (Octanoyl-[X2]F[dOrn(Me2)]L[Hyp][NMeL]VRI-NH2) stands under 1000 nM; under `CCCCCCCC(=O)N1CCC[C@H](C(=O)N[C@@H](Cc2ccccc2)C(=O)N[C@H](CCN(C)C)C(=O)N[C@@H](CC(C)C)C(=O)N2C[C@H](O)C[C@H]2C(=O)N(C)[C@@H](CC(C)C)C(=O)N[C@H](C(=O)N[C@@H](CCCNC(=N)N)C(=O)NC2CCCCCC2)C(C)C)C1` [JAL-1784, Occ-Sni-Phe-dab(Me2)-Leu-Hyp-Nml-Val-Arg-Che] (Octanoyl-[X2]F[X9]L[Hyp][NMeL]VR-NHcycloheptyl), under 1000 nM; under `CCCCCCCC(=O)N1CCC[C@H](C(=O)N[C@@H](Cc2ccccc2)C(=O)N[C@H](CCN(C)C)C(=O)N[C@@H](CC(C)C)C(=O)N2C[C@H](O)C[C@H]2C(=O)N(C)[C@@H](CC(C)C)C(=O)N[C@@H](CC(=O)O)C(=O)N[C@@H](CCCNC(=N)N)C(=O)N[C@H](C(N)=O)[C@@H](C)CC)C1` [JAL-1785, Occ-Sni-Phe-dab(Me2)-Leu-Hyp-Nml-Asp-Arg-Ile-NH2] (Octanoyl-[X2]F[X9]L[Hyp][NMeL]DRI-NH2), under 1000 nM.
Under `CCCCCC[C@H](NC(=O)COCCOCCN)C(=O)N1CCC[C@H](C(=O)N[C@@H](Cc2ccccc2)C(=O)N[C@H](CC(C)C)C(=O)N[C@@H](CC(C)C)C(=O)N2C[C@H](O)C[C@H]2C(=O)N(C)[C@@H](CC(C)C)C(=O)N[C@@H](CC(=O)O)C(=O)N[C@@H](CCCNC(=N)N)C(=O)N[C@H](C(N)=O)[C@@H](C)CC)C1` [JAL-1808, H-Adx-Hgl-Sni-Phe-leu-Leu-Hyp-Nml-Asp-Arg-Ile-NH2] (H-[AEEA][Aoc(2)][X2]F[dL]L[Hyp][NMeL]DRI-NH2) stands under 1000 nM.
As to `CCCCCCCCN1CCC[C@H](C(=O)N[C@@H](Cc2ccccc2)C(=O)N[C@H](CC(C)C)C(=O)N[C@@H](CC(C)C)C(=O)N2C[C@H](N)C[C@H]2C(=O)N(C)[C@@H](CC(C)C)C(=O)N[C@@H](CC(=O)O)C(=O)N[C@@H](CCCNC(=N)N)C(=O)NC2CCCCCC2)C1` [JAL-1843, Oct-Sni-Phe-leu-Leu-Tap-Nml-Asp-Arg-Che] (X1-F[dL]L[Pro(4R-NH2)][NMeL]DR-NHcycloheptyl), the EC50 is under 1000 nM.
Under `CCCCCCCC(=O)N1CCC[C@H](C(=O)N[C@@H](Cc2ccccc2)C(=O)N[C@H](CCCN(C)C)C(=O)N[C@@H](CC(C)C)C(=O)N2C[C@H](N)C[C@H]2C(=O)N(C)[C@@H](CC(C)C)C(=O)N[C@H](C(=O)N[C@@H](CCCNC(=N)N)C(=O)NC2CCCCCC2)C(C)C)C1` [JAL-1850, Occ-Sni-Phe-orn(Me2)-Leu-Tap-Nml-Val-Arg-Che] (Octanoyl-[X2]F[dOrn(Me2)]L[Pro(4R-NH2)][NMeL]VR-NHcycloheptyl) stands under 1000 nM; under `CCCCCCCC(=O)N1CCC[C@H](C(=O)N[C@@H](Cc2ccccc2)C(=O)NC(CCN2CCCC2)C(=O)N[C@@H](CC(C)C)C(=O)N2C[C@H](O)C[C@H]2C(=O)N(C)[C@@H](CC(C)C)C(=O)N[C@@H](CC(=O)O)C(=O)N[C@@H](CCCNC(=N)N)C(=O)N[C@H](C(N)=O)[C@@H](C)CC)C1` (stereo partly drawn) [JAL-1877, Occ-Sni-Phe-(AR-385-12)-Leu-Hyp-Nml-Asp-Arg-Ile-NH2] (Octanoyl-[X2]F[X11]L[Hyp][NMeL]DRI-NH2), under 1000 nM.
Under `CCCCCCCC(=O)N1CCC[C@H](C(=O)N[C@@H](Cc2ccccc2)C(=O)NC(CC2CCNCC2)C(=O)N[C@@H](CC(C)C)C(=O)N2C[C@H](O)C[C@H]2C(=O)N(C)[C@@H](CC(C)C)C(=O)N[C@@H](CC(=O)O)C(=O)N[C@@H](CCCNC(=N)N)C(=O)N[C@H](C(N)=O)[C@@H](C)CC)C1` (stereo partly drawn) [JAL-1890, Occ-Sni-Phe-Egg-Leu-Hyp-Nml-Asp-Arg-Ile-NH2] (Octanoyl-[X2]F[X19]L[Hyp][NMeL]DRI-NH2) stands under 1000 nM.
As for `CCCCCCCC(=O)N1CCC[C@H](C(=O)N[C@@H](Cc2ccccc2)C(=O)N[C@H](CCCN(C)C)C(=O)N[C@@H](CC(C)C)C(=O)N2C[C@H](O)C[C@H]2C(=O)N(C)[C@@H](CC(C)C)C(=O)N[C@H](C(=O)N[C@@H](CCCNC(=N)N)C(=O)NC2CCCCCC2)[C@@H](C)O)C1` [JAL-1895, Occ-Sni-Phe-orn(Me2)-Leu-Hyp-Nml-Thr-Arg-Che] (Octanoyl-[X2]F[dOrn(Me2)]L[Hyp][NMeL]TR-NHcycloheptyl), the figure is under 1000 nM; as for `CCCCCC[C@H](NC(=O)[C@@H]1CCCN1C(=O)[C@@H](N)CCCCN)C(=O)N1CCC[C@H](C(=O)N[C@@H](Cc2ccccc2)C(=O)N[C@H](CC(C)C)C(=O)N[C@@H](CC(C)C)C(=O)N2C[C@H](O)C[C@H]2C(=O)N(C)[C@@H](CC(C)C)C(=O)N[C@@H](CC(=O)O)C(=O)N[C@@H](CCCNC(=N)N)C(=O)N[C@H](C(N)=O)[C@@H](C)CC)C1` [JAL-1900, H-Lys-Pro-Hgl-Sni-Phe-leu-Leu-Hyp-Nml-Asp-Arg-Ile-NH2] (HELM PEPTIDE1{K.P.[CCCCCC[C@H](N[*:1])C(=O)[*:2]].[O=C([C@H]1CCCN([*:1])C1)[*:2]].F.[dL].L.[Hyp].[meL].D.R.I.[am]}$$$$V2.0), under 1000 nM; as for `CCCCCCCC(=O)N1CCC[C@H](C(=O)N[C@@H](Cc2ccccc2)C(=O)N[C@H](CC(C)C)C(=O)N[C@@H](CC(C)C)C(=O)N2C[C@H](O)C[C@H]2C(=O)N(C)[C@@H](CC(C)C)C(=O)N[C@H](C(=O)N[C@@H](CCCNC(=N)N)C(=O)N[C@H](C(N)=O)[C@@H](C)CC)[C@@H](C)O)C1` [JAL-1932, Occ-Sni-Phe-leu-Leu-Hyp-Nml-Thr-Arg-Ile-NH2] (HELM PEPTIDE1{[CCCCCCCC(=O)[*:2]].[O=C([C@H]1CCCN([*:1])C1)[*:2]].F.[dL].L.[Hyp].[meL].T.R.I.[am]}$$$$V2.0), under 1000 nM.
With `CCCCCCCC(=O)N1CCC[C@H](C(=O)N[C@@H](Cc2ccccc2)C(=O)N[C@H](CCCN(C)C)C(=O)N[C@@H](CC(C)C)C(=O)N2C[C@H](N)C[C@H]2C(=O)N(C)[C@@H](CC(C)C)C(=O)N[C@@H](CC(=O)O)C(=O)N[C@@H](CCCNC(=N)N)C(=O)N[C@H](C(N)=O)[C@@H](C)CC)C1` [JAL-1936, Occ-Sni-Phe-orn(Me2)-Leu-Tap-Nml-Asp-Arg-Ile-NH2] (Octanoyl-[X2]F[dOrn(Me2)]L[Pro(4R-NH2)][NMeL]DRI-NH2), the EC50 was under 1000 nM.
